Source: patent US20220119354A1, “DIAMINO-SUBSTITUTED PYRIDINES AND PYRIMIDINES AS HERBICIDES” (FMC Corporation, priority 2019, published 2022)

What was measured:
Type in all cases: in vivo
[1] = system: pigweed (Amaranthus retroflexus); assay: Test A preemergence, pigweed; settings: 0 to 100 scale, 0 is no effect, 100 is complete control
Summary of the method: (§1)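 0–100 visual control rating, ~10 d post-treatment, greenhouse. Pre = directed soil spray on seeded loam/sand; post = spray at 1–2 leaf stage. Surfactant-containing solvent formulation.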

[2] = system: foxtail, giant (Setaria faberii); assay: Test A postemergence, giant foxtail; settings: Setaria faberi, post-emergence, 240 h, 0 to 100 scale, 0 no effect, 100 complete control, read-out: Plant response rating, Foxtail, Giant
Summary of the method: as §1

[3] = system: ducksalad (Heteranthera limosa); assay: Test B flooded paddy test, ducksalad; settings: Heteranthera limosa, 360 h; Flood, 250 g ai/ha, applied to paddy water, 2-leaf stage, visual evaluation after 13 to 15 d; read-out: Plant response rating, Ducksalad (0 to 100 scale, 0 is no effect, 100 is complete control)
Summary of the method: (§2)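 Application was made into paddy water of pots flooded 3 cm deep at treatment, with seedlings at the 2-leaf stage. That flood level was kept throughout, and plants stayed under glass 13 to 15 d before visual assessment on a 0–100 control scale.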

kochia (Kochia scoparia) [4] = assay: Test A preemergence, kochia; settings: 0 to 100 scale, 0 is no effect, 100 is complete control
Summary of the method: as §1

[5] = system: pigweed (Amaranthus retroflexus); assay: Test A postemergence, pigweed; settings: Amaranthus retroflexus, post-emergence, 240 h, 0 to 100 scale, 0 no effect, 100 complete control, read-out: Plant response rating, Pigweed
Summary of the method: as §1

[6] = system: barnyardgrass (Echinochloa crus-galli); assay: Test B flooded paddy test, barnyardgrass; settings: Echinochloa crus-galli, 360 h; Flood, 250 g ai/ha, applied to paddy water, 2-leaf stage, visual evaluation after 13 to 15 d; read-out: Plant response rating, Barnyardgrass (0 to 100 scale, 0 is no effect, 100 is complete control)
Summary of the method: as §2

rice (Oryza sativa) = assay: Test B flooded paddy test, rice; settings: Oryza sativa, 360 h; Flood, 250 g ai/ha, applied to paddy water, 2-leaf stage, visual evaluation after 13 to 15 d; read-out: Plant response rating, Rice (0 to 100 scale, 0 is no effect, 100 is complete control)
Summary of the method: as §2

kochia (Kochia scoparia) [7] = assay: Test A postemergence, kochia; settings: Bassia scoparia, post-emergence, 240 h, 0 to 100 scale, 0 no effect, 100 complete control, read-out: Plant response rating, Kochia
Summary of the method: as §1

[8] = system: sedge, umbrella (small-flower umbrella sedge, Cyperus difformis); assay: Test B flooded paddy test, umbrella sedge; settings: Cyperus difformis, 360 h; Flood, 250 g ai/ha, applied to paddy water, 2-leaf stage, visual evaluation after 13 to 15 d; read-out: Plant response rating, Sedge, Umbrella (0 to 100 scale, 0 is no effect, 100 is complete control)
Summary of the method: as §2

[9] = system: galium (catchweed bedstraw, Galium aparine); assay: Test A postemergence, galium; settings: Galium, post-emergence, 240 h, 0 to 100 scale, 0 no effect, 100 complete control, read-out: Plant response rating, Galium
Summary of the method: as §1

[10] = system: foxtail, giant (Setaria faberii); assay: Test A preemergence, giant foxtail; settings: 0 to 100 scale, 0 is no effect, 100 is complete control
Summary of the method: as §1

[11] = system: blackgrass (Alopecurus myosuroides); assay: Test A postemergence, blackgrass; settings: Alopecurus myosuroides, post-emergence, 240 h, 0 to 100 scale, 0 no effect, 100 complete control, read-out: Plant response rating, Blackgrass
Summary of the method: as §1

[12] = system: barnyardgrass (Echinochloa crus-galli); assay: Test A postemergence, barnyardgrass; settings: Echinochloa crus-galli, post-emergence, 240 h, 0 to 100 scale, 0 no effect, 100 complete control, read-out: Plant response rating, Barnyardgrass
Summary of the method: as §1

[13] = system: wheat (Triticum aestivum); assay: Test A postemergence, wheat; settings: Triticum aestivum, post-emergence, 240 h, 0 to 100 scale, 0 no effect, 100 complete control, read-out: Plant response rating, Wheat
Summary of the method: as §1

[14] = system: barnyardgrass (Echinochloa crus-galli); assay: Test A preemergence, barnyardgrass; settings: 0 to 100 scale, 0 is no effect, 100 is complete control
Summary of the method: as §1

[15] = system: ragweed (common ragweed, Ambrosia elatior); assay: Test A preemergence, ragweed; settings: 0 to 100 scale, 0 is no effect, 100 is complete control
Summary of the method: as §1

corn (Zea mays) = assay: Test A postemergence, corn; settings: Zea mays, post-emergence, 240 h, 0 to 100 scale, 0 no effect, 100 complete control
Summary of the method: as §1

C[C@@H](Nc1ncc(C(F)(F)F)c(N)n1)c1cc2cccc(F)c2s1 [Compound 75, N2-[(1R)-1-(7-fluorobenzo[b]thien-2-yl)ethyl]-5-(trifluoromethyl)-2,4-pyrimidinediamine]
Pigweed plant response rating ([1]; 125 g ai/ha): 100 | Pigweed plant response rating ([1]; 500 g ai/ha): 100 | pest or weed control at 125 g/ha ([2]; 125 g ai/ha): 60% | pest or weed control at 500 g/ha ([2]; 500 g ai/ha): 90% | pest or weed control at 250 g/ha [3]: 95% | Kochia plant response rating (kochia (Kochia scoparia) [4]; 125 g ai/ha): 90 | Kochia plant response rating (kochia (Kochia scoparia) [4]; 500 g ai/ha): 100 | pest or weed control at 125 g/ha ([5]; 125 g ai/ha): 100% | pest or weed control at 500 g/ha ([5]; 500 g ai/ha): 100% | pest or weed control at 250 g/ha [6]: 40% | plant injury at 250 g/ha (rice (Oryza sativa)): 0% | pest or weed control at 125 g/ha (kochia (Kochia scoparia) [7]; 125 g ai/ha): 80% | pest or weed control at 500 g/ha (kochia (Kochia scoparia) [7]; 500 g ai/ha): 90% | pest or weed control at 250 g/ha [8]: 98% | pest or weed control at 125 g/ha ([9]; 125 g ai/ha): 80% | pest or weed control at 500 g/ha ([9]; 500 g ai/ha): 80% | Foxtail, Giant plant response rating ([10]; 125 g ai/ha): 90 | Foxtail, Giant plant response rating ([10]; 500 g ai/ha): 100 | pest or weed control at 125 g/ha ([11]; 125 g ai/ha): 0% | pest or weed control at 500 g/ha ([11]; 500 g ai/ha): 30% | pest or weed control at 125 g/ha ([12]; 125 g ai/ha): 30% | pest or weed control at 500 g/ha ([12]; 500 g ai/ha): 100% | plant injury at 125 g/ha ([13]; 125 g ai/ha): 0% | plant injury at 500 g/ha ([13]; 500 g ai/ha): 0% | Barnyardgrass plant response rating ([14]; 125 g ai/ha): 90 | Barnyardgrass plant response rating ([14]; 500 g ai/ha): 90 | Ragweed plant response rating ([15]; 125 g ai/ha): 100 | Ragweed plant response rating ([15]; 500 g ai/ha): 100 | Corn plant response rating (crop injury, 0 = no effect, 100 = complete kill) at 125 g/ha (corn (Zea mays); 125 g ai/ha): 0% | Corn plant response rating (crop injury, 0 = no effect, 100 = complete kill) at 500 g/ha (corn (Zea mays); 500 g ai/ha): 10%
